Laboratory results as given in ChEMBL document CHEMBL6121036, “Evaluation of Cereblon-Directing Warheads for the Development of Orally Bioavailable PROTACs” (J Med Chem, 2025).
≈ marks a conversion by molar mass, not a printed value. Calls of active or inactive are those of the source. The rule behind the calls is not given here.

Legend:
[1] = biological target: T1, Protein cereblon/Bromodomain-containing protein 4 (Homo sapiens, UniProt O60885+Q96SW2); test: PROTAC activity at CRBN/Hibit-tagged BRD4 (unknown origin) expressed in HEK293 cells co-expressing LgBiT assessed as degradation of BRD4 incubated for 24 hrs by […] glo-max assay; format: cell-based
[2] = biological target: T1, Protein cereblon/Bromodomain-containing protein 4; test: PROTAC activity at CRBN/Hibit-tagged BRD4 (unknown origin) expressed in HEK293 cells co-expressing LgBiT assessed as degradation of BRD4 incubated for 24 hrs by […] glo-max assay relative to control; format: cell-based
[3] = biological target: T1, Protein cereblon/Bromodomain-containing protein 4; test: PROTAC activity at CRBN/Hibit-tagged BRD4 (unknown origin) expressed in HEK293 cells co-expressing LgBiT assessed as degradation rate incubated for 24 hrs by […] glo-max assay; format: cell-based
MV4-11 = test: Cytotoxicity against human MV4-11 cells assessed as reduction in cell viability incubated for 72 hrs by cell-titer glo assay; format: functional, cell-based; settings: MV4-11, 72 h
HD-MB03 = test: Cytotoxicity against human HD-MB03 cells assessed as reduction in cell viability incubated for 72 hrs by cell-titer glo assay; format: functional, cell-based; settings: HD-MB03, 72 h
[4] = Kinetic aqueous solubility of the compound at pH 7.4; format: physicochemical; settings: read-out: Kinetic_solubility
[5] = Metabolic stability in mouse liver microsomes assessed as half life; format: ADME, Microsome; settings: liver microsomes
[6] = biological target: Protein cereblon/Bromodomain-containing protein 4/DNA damage-binding protein 1 (Homo sapiens) (UniProt O60885+Q96SW2+Q16531); test: Binding affinity to his-tagged CRBN/DDB1/GST-tagged BRD4 (49 to 170 residues)(unknown origin) assessed as ternary complex formation (AUC) incubated for 1 hr by luminescence based Alphascreen assay; format: protein assay
HEK293 = test: Cytotoxicity against HEK293 cells expressing LgBiT fused HiBiT-BRD2 measured after 24 hrs by cell titer-glo assay; format: toxicity, cell-based; settings: human, hek293, 24 h
[7] = biological target: Protein cereblon/Bromodomain-containing protein 2 (Homo sapiens) (UniProt P25440+Q96SW2); test: PROTAC activity at CRBN/Hibit-tagged CRISPR BRD2 (unknown origin) expressed in HEK293 cells coexpressing LgBiT assessed as degradation of BRD2 by […] glo-max assay; format: cell-based
[8] = biological target: Protein cereblon/Bromodomain-containing protein 3 (Homo sapiens) (UniProt Q15059+Q96SW2); test: PROTAC activity at CRBN/Hibit-tagged CRISPR BRD3 (unknown origin) expressed in HEK293 cells co-expressing LgBiT assessed as degradation of BRD3 by […] glo-max assay; format: cell-based
[9] = biological target: T1, Protein cereblon/Bromodomain-containing protein 4; test: PROTAC activity at CRBN/Hibit-tagged CRISPR BRD4 (unknown origin) expressed in HEK293 cells co-expressing LgBiT assessed as degradation of BRD4 by […] glo-max assay; format: cell-based
[10] = Effect on BRD3 level in human MV4-11 cells assessed as fold change at 100 nM measured after 4 hrs; format: functional
[11] = Effect on BRD4 level in human MV4-11 cells assessed as fold change at 100 nM measured after 4 hrs; format: functional
[12] = Effect on BRD2 level in human MV4-11 cells assessed as fold change at 100 nM measured after 4 hrs; format: functional
[13] = Effect on MYC level in human MV4-11 cells assessed as fold change at 100 nM measured after 4 hrs; format: functional
[14] = Effect on FYTTD1 level in human MV4-11 cells assessed as fold change at 100 nM measured after 4 hrs; format: functional
[15] = Effect on CCNF level in human MV4-11 cells assessed as fold change at 100 nM measured after 4 hrs; format: functional
[16] = Effect on CDC42EP3 level in human MV4-11 cells assessed as fold change at 100 nM measured after 4 hrs; format: functional
[17] = Effect on MCL1 level in human MV4-11 cells assessed as fold change at 100 nM measured after 4 hrs; format: functional
[18] = Effect on PLAU level in human MV4-11 cells assessed as fold change at 100 nM measured after 4 hrs; format: functional
[19] = Effect on ZFP36L2 level in human MV4-11 cells assessed as fold change at 100 nM measured after 4 hrs; format: functional
[20] = Effect on FGL2 level in human MV4-11 cells assessed as fold change at 100 nM measured after 4 hrs; format: functional
[21] = Effect on NSA2 level in human MV4-11 cells assessed as fold change at 100 nM measured after 4 hrs; format: functional
[22] = Effect on CCND3 level in human MV4-11 cells assessed as fold change at 100 nM measured after 4 hrs; format: functional
[23] = Effect on AURKA level in human MV4-11 cells assessed as fold change at 100 nM measured after 4 hrs; format: functional
[24] = Effect on NOP53 level in human MV4-11 cells assessed as fold change at 100 nM measured after 4 hrs; format: functional
[25] = Effect on PLK1 level in human MV4-11 cells assessed as fold change at 100 nM measured after 4 hrs; format: functional
[26] = Effect on RNF166 level in human MV4-11 cells assessed as fold change at 100 nM measured after 4 hrs; format: functional
[27] = Effect on ZBTB21 level in human MV4-11 cells assessed as fold change at 100 nM measured after 4 hrs; format: functional
[28] = Effect on TP53 level in human MV4-11 cells assessed as fold change at 100 nM measured after 4 hrs; format: functional
[29] = Stability in mouse plasma assessed as half life by UPLC-MS/MS analysis; format: ADME, cell-free
[30] = Permeability in MDCK-II cells incubated for 1 hr by UPLC/MS/UV analysis; format: ADME, cell-based, Canis lupus familiaris; settings: dog, read-out: permeability

SMILES: Cc1sc2c(c1C)C(c1ccc(Cl)cc1)=N[C@@H](CC(=O)N1CCN(CC3CCN(c4ccc(C5CCC(=O)NC5=O)cc4)CC3)CC1)c1nnc(C)n1-2 (some centres undefined)
- DC50 [1]: 0.43 nM
- Emax [2]: 96.9%
- Activity [3]: 0.245 fRLU/hr
- IC50 (MV4-11): 0.22 nM
- IC50 (HD-MB03): 1.96 nM
- solubility kinetic [4]: 64.5 µM (≈ 48.6 µg/mL)
- half-life [5]: 130 min
- Activity [6]: Active
- Activity (HEK293): Non-toxic

SMILES: Cc1sc2c(c1C)C(c1ccc(Cl)cc1)=N[C@@H](CC(=O)N1CCN(c3ccc(C4CCC(=O)NC4=O)cc3)CC1)c1nnc(C)n1-2 (some centres undefined)
- DC50 [1]: > 10000 nM
- Emax [2]: 10.6%
- Activity [3]: 0.005 fRLU/hr
- IC50 (MV4-11): 18.6 nM
- IC50 (HD-MB03): 250 nM
- solubility kinetic [4]: 17 µM (≈ 11.2 µg/mL)
- half-life [5]: 12 min
- Activity [6]: Active; Lower Ternary Complex Auc Formation Observed
- Activity (HEK293): Non-toxic

SMILES: Cc1sc2c(c1C)C(c1ccc(Cl)cc1)=N[C@@H](CC(=O)N1CCC(CN3CCN(c4ccc(NC5CCC(=O)NC5=O)c(F)c4)CC3)CC1)c1nnc(C)n1-2 (some centres undefined)
- DC50 [1]: 2.31 nM
- Emax [2]: 79.1%
- Activity [3]: 0.093 fRLU/hr
- IC50 (MV4-11): 0.96 nM
- IC50 (HD-MB03): 14.3 nM
- solubility kinetic [4]: 71.1 µM (≈ 55.9 µg/mL)
- half-life [5]: 112 min
- Activity [6]: Active
- Activity [7]: Active; Less Potent Than Protac 8
- Activity [8]: Active; Less Potent Than Protac 8
- Activity [9]: Active; Less Potent Than Protac 8
- fold change (FC) [10]: -3.87
- fold change (FC) [11]: -3.41
- fold change (FC) [12]: -3.07
- fold change (FC) [13]: -2.23
- fold change (FC) [14]: -1.46
- fold change (FC) [15]: -1.62
- fold change (FC) [16]: -1.17
- fold change (FC) [17]: -1.06
- fold change (FC) [18]: -1.06
- fold change (FC) [19]: -0.97
- fold change (FC) [20]: -0.95
- fold change (FC) [21]: -1.03
- fold change (FC) [22]: -0.82
- fold change (FC) [23]: -0.77
- fold change (FC) [24]: -0.82
- fold change (FC) [25]: -0.65
- fold change (FC) [26]: -0.33
- fold change (FC) [27]: -0.09
- fold change (FC) [28]: 1.71
- half-life [29]: 1180 min

SMILES: Cc1sc2c(c1C)C(c1ccc(Cl)cc1)=N[C@@H](CC(=O)OC(C)(C)C)c1nnc(C)n1-2
- half-life [5]: 13.8 min

SMILES: Cc1sc2c(c1C)C(c1ccc(Cl)cc1)=N[C@@H](CC(=O)NCCCOc1ccc(C3CCC(=O)NC3=O)cc1)c1nnc(C)n1-2 (some centres undefined)
- DC50 [1]: 0.75 nM
- Emax [2]: 97.3%
- Activity [3]: 0.264 fRLU/hr
- IC50 (MV4-11): 0.23 nM
- IC50 (HD-MB03): 3.27 nM
- solubility kinetic [4]: 52.8 µM (≈ 34.1 µg/mL)
- half-life [5]: 9.6 min
- Activity [6]: Active
- Activity (HEK293): Non-toxic

SMILES: Cc1sc2c(c1C)C(c1ccc(Cl)cc1)=N[C@@H](CC(=O)N1CCC(CN3CCN(c4cc5c(cc4F)C(=O)N(C4CCC(=O)NC4=O)C5=O)CC3)CC1)c1nnc(C)n1-2 (some centres undefined)
- DC50 [1]: 6.28 nM
- Emax [2]: 88.6%
- Activity [3]: 0.143 fRLU/hr
- IC50 (MV4-11): 3.23 nM
- IC50 (HD-MB03): 84 nM
- solubility kinetic [4]: 73.4 µM (≈ 61.7 µg/mL)
- half-life [5]: 16.8 min
- Activity [6]: Active
- Activity [7]: Active; Less Potent Than Protac 8
- Activity [8]: Active; Less Potent Than Protac 8
- Activity [9]: Active; Less Potent Than Protac 8
- fold change (FC) [10]: -3.93
- fold change (FC) [11]: -3.89
- fold change (FC) [12]: -3.06
- fold change (FC) [13]: -2.29
- fold change (FC) [14]: -1.52
- fold change (FC) [15]: -1.86
- fold change (FC) [16]: -1.41
- fold change (FC) [17]: -1.22
- fold change (FC) [18]: -1.14
- fold change (FC) [19]: -1.09
- fold change (FC) [20]: -1.1
- fold change (FC) [21]: -1.04
- fold change (FC) [22]: -0.96
- fold change (FC) [23]: -0.84
- fold change (FC) [24]: -0.81
- fold change (FC) [25]: -0.75
- fold change (FC) [26]: -1.01
- fold change (FC) [27]: -0.02
- fold change (FC) [28]: 1.82
- Papp at 1 h [30]: 10.5 ×10⁻⁶ cm/s
- half-life [29]: 822 min

SMILES: Cc1sc2c(c1C)C(c1ccc(Cl)cc1)=N[C@@H](CC(=O)N1CC(COc3ccc(C4CCC(=O)NC4=O)cc3)C1)c1nnc(C)n1-2 (some centres undefined)
- DC50 [1]: 13.9 nM
- Emax [2]: 40.4%
- Activity [3]: 0.07 fRLU/hr
- IC50 (MV4-11): 3.1 nM
- IC50 (HD-MB03): 38.2 nM
- solubility kinetic [4]: 21.3 µM (≈ 14 µg/mL)
- half-life [5]: 16.8 min
- Activity [6]: Active
- Activity (HEK293): Non-toxic

SMILES: Cc1sc2c(c1C)C(c1ccc(Cl)cc1)=N[C@@H](CC(=O)N1CCN(c3cccc(C4CCC(=O)NC4=O)c3)CC1)c1nnc(C)n1-2 (some centres undefined)
- DC50 [1]: > 10000 nM
- Emax [2]: 12.3%
- Activity [3]: 0.005 fRLU/hr
- IC50 (MV4-11): 6.36 nM
- IC50 (HD-MB03): 90.7 nM
- solubility kinetic [4]: 21.5 µM (≈ 14.1 µg/mL)
- half-life [5]: 17.4 min
- Activity [6]: Active; Lower Ternary Complex Auc Formation Observed
- Activity (HEK293): Non-toxic
